Series [1] concerns the target T1, Solute carrier organic anion transporter family member 1B1 (Homo sapiens, UniProt Q9Y6L6).
T1 sequence (Q9Y6L6 whole entry): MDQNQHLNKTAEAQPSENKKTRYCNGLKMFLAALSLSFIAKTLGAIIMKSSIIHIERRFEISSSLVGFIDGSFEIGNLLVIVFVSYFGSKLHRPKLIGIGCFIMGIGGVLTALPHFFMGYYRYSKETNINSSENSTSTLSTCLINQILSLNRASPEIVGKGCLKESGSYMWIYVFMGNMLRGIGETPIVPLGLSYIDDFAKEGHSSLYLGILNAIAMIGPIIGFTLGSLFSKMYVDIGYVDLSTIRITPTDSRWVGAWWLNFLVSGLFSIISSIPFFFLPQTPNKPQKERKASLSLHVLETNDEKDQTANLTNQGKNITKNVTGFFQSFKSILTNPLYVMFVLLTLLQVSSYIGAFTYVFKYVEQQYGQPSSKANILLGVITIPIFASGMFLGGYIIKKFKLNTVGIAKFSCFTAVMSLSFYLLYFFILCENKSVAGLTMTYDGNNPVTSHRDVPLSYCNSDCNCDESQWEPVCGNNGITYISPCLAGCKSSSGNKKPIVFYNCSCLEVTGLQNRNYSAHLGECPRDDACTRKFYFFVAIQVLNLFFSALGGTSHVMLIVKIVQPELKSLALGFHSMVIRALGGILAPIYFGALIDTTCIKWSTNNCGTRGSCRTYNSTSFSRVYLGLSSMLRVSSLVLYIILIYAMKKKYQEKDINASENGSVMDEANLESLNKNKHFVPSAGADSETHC
As to conditions: chinese hamster, cho, 10 µM.

Series [2] addresses T2, Solute carrier organic anion transporter family member 1B3 (Homo sapiens, UniProt Q9NPD5).
T2 sequence (Q9NPD5 whole entry): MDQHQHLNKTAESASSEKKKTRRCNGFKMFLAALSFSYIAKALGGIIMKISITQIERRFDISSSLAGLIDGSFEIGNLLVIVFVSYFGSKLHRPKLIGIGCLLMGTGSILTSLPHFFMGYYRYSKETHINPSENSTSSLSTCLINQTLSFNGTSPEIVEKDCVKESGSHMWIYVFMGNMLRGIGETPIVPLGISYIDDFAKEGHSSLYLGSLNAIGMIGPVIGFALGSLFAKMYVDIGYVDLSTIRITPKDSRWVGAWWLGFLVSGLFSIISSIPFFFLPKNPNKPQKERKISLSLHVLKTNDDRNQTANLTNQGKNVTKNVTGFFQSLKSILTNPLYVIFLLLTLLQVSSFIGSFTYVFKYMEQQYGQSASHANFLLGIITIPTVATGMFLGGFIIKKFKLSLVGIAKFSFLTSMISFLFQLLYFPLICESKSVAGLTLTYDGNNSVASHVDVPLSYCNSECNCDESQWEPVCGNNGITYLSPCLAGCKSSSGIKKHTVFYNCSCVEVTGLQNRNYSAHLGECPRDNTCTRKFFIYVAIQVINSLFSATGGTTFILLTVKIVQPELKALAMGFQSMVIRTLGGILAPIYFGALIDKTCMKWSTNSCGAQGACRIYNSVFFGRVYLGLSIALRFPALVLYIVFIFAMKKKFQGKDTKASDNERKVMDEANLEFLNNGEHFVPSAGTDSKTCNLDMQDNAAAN
The conditions noted are these: chinese hamster, cho, 10 µM.

Molecules are shown by their SMILES.

Take `O=C1CN(/N=C/c2ccc(-c3ccc([N+](=O)[O-])cc3)o2)C(=O)[N-]1.[Na+]` [DANTROLENE SODIUM]: the residual activity (commonly the signal under treatment as a percentage of the control signal) in series [1] was 111.7%; in series [2] it was 114.3%.

Take `O=c1ccc2ccc(O)c(O)c2o1` [DAPHNETIN]: the residual activity in series [1] came to 66.34%; in series [2], 94.36%.

For the compound `Nc1ccc(S(=O)(=O)c2ccc(N)cc2)cc1` [DAPSONE], the residual activity in series [1] worked out at 78.21%; in series [2], 84.17%.

Take `CN(C)C(=O)Nc1ccc(Cl)c(Cl)c1` [DCMU]: the values for the residual activity in series [1] and in series [2] were 105.4% and 99%, respectively.

Consider `CC1(C)C(=O)C=C[C@]2(C)[C@H]3CC[C@@]4(C)[C@H](c5ccoc5)OC(=O)[C@H]5O[C@]54[C@]3(C)C(=O)C[C@@H]12` [DEACETOXY-7-OXOGEDUNIN], for which the values for the residual activity in series [1] and in series [2] were 40.28% and 85.14%, respectively.

For the compound `CC1(C)C(=O)C=C[C@]2(C)[C@H]3CC[C@@]4(C)[C@H](c5ccoc5)OC(=O)[C@H]5O[C@]54[C@]3(C)[C@H](O)C[C@@H]12` [DEACETYLGEDUNIN], the residual activity worked out at 74.35% in series [1] and 60.92% in series [2].

With `CC(=O)N(O)CCCCCNC(=O)CCC(=O)N(O)CCCCCNC(=O)CCC(=O)N(O)CCCCCN.CS(=O)(=O)O` [DEFEROXAMINE MESYLATE], the residual activity in series [1] is 116.4%; in series [2], 98.92%.

With `COc1cc2c(cc1OC)[C@@H]1C(=O)c3ccc4c(c3O[C@@H]1CO2)C=CC(C)(C)O4` [DEGUELIN], the residual activity in series [1] is listed as 99.89%; in series [2] it was 75.69%.

As for `CC(C)c1ccc2c(c1)CC[C@H]1[C@](C)(C(N)=O)CCC[C@]21C` [DEHYDROABIETAMIDE], the residual activity in series [1] stood at 81.19%; in series [2], 106.2%.

For the compound `C=CCCCCCCCCCCC/C=C/C(O)COC(C)=O` (centres undefined) [DEHYDROAVOCATIN-1-ACETATE], the residual activity in series [1] is listed as 134.1%; in series [2] it was 107.3%.

Take `C[C@H](CCC(=O)O)[C@H]1CC[C@H]2[C@@H]3C(=O)C[C@@H]4CC(=O)CC[C@]4(C)[C@H]3CC(=O)[C@]12C` [DEHYDROCHOLIC ACID]: the results for the residual activity in series [1] and in series [2] were 80.16% and 88.23%, respectively.

On to `COc1cc2c(cc1OC)-c1c(oc3c4c(ccc3c1=O)OC(C(C)C)C4)CO2` (centres undefined) [DEHYDRODIHYDROROTENONE], for which the residual activity is recorded as 89.82% in series [1] and 95.69% in series [2].

Take `CC(=O)O[C@H]1CC[C@@]2(C)C(=CC[C@@H]3[C@@H]2CC[C@]2(C)C(=O)CC[C@@H]32)C1` [DEHYDROEPIANDROSTERONE ACETATE]: the residual activity in series [1] is 97.61%; in series [2], 140.4%.

For `C=C(C)[C@H]1Cc2c(ccc3c(=O)c4c(oc23)COc2cc(OC)c(OC)cc2-4)O1` [DEHYDROROTENONE], the figures for the residual activity in series [1] and in series [2] were 113.5% and 92.82%, respectively.

Regarding `COc1ccc2c(c1)OCc1c-2oc2cc(OC)ccc12` [DEHYDROVARIABILIN], the residual activity was determined as 136.9% in series [1] and 89.07% in series [2].

As to `CCN1C[C@]2(C)CC[C@H](OC)[C@@]34C1[C@]1(OCO[C@@]15C[C@H](OC)[C@H]1C[C@]3(O)[C@@H]5[C@H]1OC)[C@@H](OC(C)=O)[C@H]24` [DELTALINE], the values for the residual activity in series [1] and in series [2] were 88.11% and 103.5%, respectively.

For `CN(C)[C@@H]1C(O)=C(C(N)=O)C(=O)[C@@]2(O)C(O)=C3C(=O)c4c(O)ccc(Cl)c4[C@@H](O)[C@H]3C[C@@H]12.Cl` [DEMECLOCYCLINE HYDROCHLORIDE], the residual activity stood at 104.7% in series [1] and 90.61% in series [2].

Turning to `Nc1ncnc2c1ncn2[C@H]1C[C@H](O)[C@@H](CO)O1` [DEOXYADENOSINE], the values for the residual activity in series [1] and in series [2] were 112.3% and 106.4%, respectively.

Consider `CC1(C)C2CC(=O)O[C@@]3(C)C4=CC(=O)O[C@@H](c5ccoc5)[C@]4(C)CCC3[C@@]2(C)C=C[C@H]1O` (some centres undefined) [DEOXYANDIROBIN LACTONE], for which the residual activity was determined as 29.53% in series [1] and 53.06% in series [2].

On to `C=C1C2=CC(=O)O[C@@H](c3ccoc3)[C@]2(C)CCC1[C@@]1(C)C=CC(=O)C(C)(C)[C@@H]1CC(=O)OC` (some centres undefined) [DEOXYANDIROBIN], for which the figures for the residual activity in series [1] and in series [2] were 27.69% and 42.8%, respectively.

`CC(=O)O[C@@H]1C=C[C@]2(C)C(C[C@@H](OC(C)=O)[C@]3(C)C4=CC(=O)O[C@H](c5ccoc5)[C@@]4(C)CCC23)C1(C)C` (some centres undefined) [DEOXYGEDUNOL ACETATE]: the residual activity in series [1] was determined as 23.25%; in series [2], 49.18%.

`Nc1nc2c(ncn2[C@H]2C[C@H](O)[C@@H](CO)O2)c(=O)[nH]1` [DEOXYGUANOSINE]: the residual activity was 85.51% in series [1] and 90.97% in series [2].

With `COc1ccc2c(c1)OCC(Cc1ccc(OC)c(OC(C)=O)c1)C2=O` (centres undefined) [DEOXYSAPPANONE B 7,3'-DIMETHYL ETHER ACETATE], the residual activity in series [1] is listed as 122.7%; in series [2], 148.3%.

Take `COc1ccc2c(c1)OCC(Cc1ccc(OC)c(OC)c1)C2=O` (centres undefined) [DEOXYSAPPANONE B TRIMETHYL ETHER]: the residual activity amounted to 174.5% in series [1] and 150.7% in series [2].

Regarding `Cc1cc(N)c2ccccc2[n+]1CCCCCCCCCC[n+]1c(C)cc(N)c2ccccc21.[Cl-].[Cl-]` [DEQUALINIUM CHLORIDE], the residual activity in series [1] is 158.8%; in series [2], 111.4%.

In the case of `COc1ccc(-c2cc(C(F)F)nn2-c2ccc(S(N)(=O)=O)cc2)cc1F` [DERACOXIB], the figures for the residual activity in series [1] and in series [2] were 127.8% and 98.95%, respectively.

Turning to `CC(C)=CCc1c(O)cc2occ(-c3ccc4c(c3)OCO4)c(=O)c2c1O` [DERRUBONE], the residual activity stood at 115.1% in series [1] and 106.9% in series [2].

As for `COc1cc(OC)c2c(OC)c(-c3ccc4c(c3)OCO4)c(=O)oc2c1` [DERRUSNIN], the figures for the residual activity in series [1] and in series [2] were 141.7% and 115.7%, respectively.

As for `COc1cc(OC)c2c(=O)c(-c3ccc4c(c3)OCO4)coc2c1` [DERRUSTONE], the results for the residual activity in series [1] and in series [2] were 132.5% and 94.69%, respectively.

Regarding `CC1=CC(=O)C2=C(C)CC[C@@H]3[C@H](OC(=O)[C@H]3C)[C@@H]12` [DESACETOXYMATRICARIN], the figures for the residual activity in series [1] and in series [2] were 129% and 118.5%, respectively.

Regarding `CNCCCN1c2ccccc2CCc2ccccc21.Cl` [DESIPRAMINE HYDROCHLORIDE], the residual activity is 55.55% in series [1] and 96.51% in series [2].

Consider `Cl.c1ccc2c(c1)CN1CCCC1=N2` [DESOXYPEGANINE HYDROCHLORIDE], for which the residual activity in series [1] is given as 132%; in series [2] it was 113.9%.

As for `CC(=O)OCC(=O)[C@@]1(O)[C@H](C)C[C@H]2[C@@H]3CCC4=CC(=O)C=C[C@]4(C)[C@@]3(F)[C@@H](O)C[C@@]21C` [DEXAMETHASONE ACETATE], the values for the residual activity in series [1] and in series [2] were 106% and 88.69%, respectively.

On to `CN(C)CC[C@@H](c1ccc(Cl)cc1)c1ccccn1.O=C(O)/C=C\C(=O)O` [DEXCHLORPHENIRAMINE MALEATE], for which the residual activity in series [1] came to 117.7%; in series [2], 103.6%.

Consider `CC(C)NC[C@@H](O)COc1cccc2ccccc12.Cl` [DEXPROPRANOLOL HYDROCHLORIDE], for which the values for the residual activity in series [1] and in series [2] were 108.7% and 103.2%, respectively.

`Br.COc1ccc2c(c1)[C@]13CCCC[C@@H]1[C@H](C2)N(C)CC3.O` [DEXTROMETHORPHAN HYDROBROMIDE]: the residual activity in series [1] was found to be 49.83%; in series [2] it was 78.21%.

Consider `CC(=O)Oc1cccc2c1C(=O)c1c(OC(C)=O)cc(C(=O)O)cc1C2=O` [DIACEREIN], for which the figures for the residual activity in series [1] and in series [2] were 72.58% and 86.69%, respectively.

The values above are taken from ChEMBL document CHEMBL3039007, “Structure-based identification of OATP1B1/3 inhibitors” (Mol Pharmacol, 2013).
